Results taken from ChEMBL document CHEMBL1201862, “PubChem BioAssay data set” (2004).
One block for each compound: values may come before it. Active and inactive are the calls of the source.

Columns and labels:
[1] = biological target: Potassium voltage-gated channel subfamily KQT member 2 (Rattus norvegicus, UniProt O88943); experiment: blockers of KCNQ2 channel current – cell-based, automated electrophysiology, set II, rat KCNQ2, dose response (AID 588637); type: functional
[2] = biological target: T1, High affinity choline transporter 1 (Homo sapiens, UniProt Q9GZV3); experiment: human choline transporter blockers, potency – cell-based, 10-point CRC, membrane potential dye, dose response (AID 588401); type: functional;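 further: membrane potential dye fluorescence of choline-evoked depolarization via CHT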
T1 sequence (Q9GZV3 whole entry): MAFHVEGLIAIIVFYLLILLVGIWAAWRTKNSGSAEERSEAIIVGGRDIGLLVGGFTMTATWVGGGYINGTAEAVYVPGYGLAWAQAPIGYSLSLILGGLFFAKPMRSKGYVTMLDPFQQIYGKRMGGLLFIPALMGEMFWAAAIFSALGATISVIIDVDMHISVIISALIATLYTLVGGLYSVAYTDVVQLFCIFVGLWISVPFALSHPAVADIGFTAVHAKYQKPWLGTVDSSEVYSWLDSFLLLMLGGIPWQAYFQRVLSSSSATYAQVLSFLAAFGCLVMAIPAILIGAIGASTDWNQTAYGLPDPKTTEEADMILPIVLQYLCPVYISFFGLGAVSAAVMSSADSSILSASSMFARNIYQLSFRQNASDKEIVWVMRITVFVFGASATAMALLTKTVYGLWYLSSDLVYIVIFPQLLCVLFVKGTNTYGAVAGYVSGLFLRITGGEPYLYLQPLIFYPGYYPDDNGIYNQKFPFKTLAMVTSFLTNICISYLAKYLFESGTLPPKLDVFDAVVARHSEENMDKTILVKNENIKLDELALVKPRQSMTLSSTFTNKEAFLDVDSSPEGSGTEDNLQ

Aminopeptidase N = biological target: T2, Aminopeptidase N (Plasmodium falciparum FcB1/Columbia, UniProt O96935); experiment: malaria alanyl aminopeptidase activity blockers – biochemical, fluorogenic H-Leu-NHMec substrate, 1536-well (AID 1445); parameters: species or system Plasmodium falciparum 3D7, 3D7
T2 sequence (O96935 whole entry): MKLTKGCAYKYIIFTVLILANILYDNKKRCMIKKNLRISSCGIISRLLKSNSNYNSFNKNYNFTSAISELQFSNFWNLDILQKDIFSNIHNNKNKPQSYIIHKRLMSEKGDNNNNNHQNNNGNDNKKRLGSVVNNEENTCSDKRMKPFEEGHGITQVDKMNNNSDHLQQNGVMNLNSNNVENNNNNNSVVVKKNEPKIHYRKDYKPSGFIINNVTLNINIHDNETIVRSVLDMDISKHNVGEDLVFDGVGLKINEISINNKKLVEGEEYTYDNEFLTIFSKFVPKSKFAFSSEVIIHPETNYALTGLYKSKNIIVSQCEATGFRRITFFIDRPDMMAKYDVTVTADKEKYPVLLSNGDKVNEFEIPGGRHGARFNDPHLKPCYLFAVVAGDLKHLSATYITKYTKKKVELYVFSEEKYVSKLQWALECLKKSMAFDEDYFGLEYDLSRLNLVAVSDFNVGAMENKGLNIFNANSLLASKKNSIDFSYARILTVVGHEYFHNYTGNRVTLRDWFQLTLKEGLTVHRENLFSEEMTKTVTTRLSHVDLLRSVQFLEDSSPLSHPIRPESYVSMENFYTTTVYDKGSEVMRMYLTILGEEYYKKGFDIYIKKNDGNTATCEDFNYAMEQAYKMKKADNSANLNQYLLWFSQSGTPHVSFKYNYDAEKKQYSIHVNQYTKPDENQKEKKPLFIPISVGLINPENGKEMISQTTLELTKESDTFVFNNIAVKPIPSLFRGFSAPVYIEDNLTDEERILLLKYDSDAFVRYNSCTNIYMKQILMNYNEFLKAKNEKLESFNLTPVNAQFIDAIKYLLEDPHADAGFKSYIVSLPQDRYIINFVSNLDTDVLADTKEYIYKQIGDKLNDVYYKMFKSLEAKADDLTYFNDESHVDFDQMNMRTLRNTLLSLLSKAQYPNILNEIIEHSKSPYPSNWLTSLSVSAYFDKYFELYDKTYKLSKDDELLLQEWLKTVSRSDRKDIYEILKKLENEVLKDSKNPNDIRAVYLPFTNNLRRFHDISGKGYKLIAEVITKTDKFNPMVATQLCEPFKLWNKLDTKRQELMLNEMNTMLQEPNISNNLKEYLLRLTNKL

[3] = biological target: T1, High affinity choline transporter 1; experiment: human choline transporter blockers, potency – cell-based, 5-point CRC, membrane potential dye, dose response (AID 504840); type: functional
Hexokinase HKDC1 = biological target: T3, Hexokinase HKDC1 (Homo sapiens, UniProt Q2TB90); experiment: SAR analysis of small molecule inhibitors of hexokinase domain containing I (HKDC1). [Related pubchem assays (depositor defined):AID493160, AID493190]; type: functional
T3 sequence (Q2TB90 whole entry): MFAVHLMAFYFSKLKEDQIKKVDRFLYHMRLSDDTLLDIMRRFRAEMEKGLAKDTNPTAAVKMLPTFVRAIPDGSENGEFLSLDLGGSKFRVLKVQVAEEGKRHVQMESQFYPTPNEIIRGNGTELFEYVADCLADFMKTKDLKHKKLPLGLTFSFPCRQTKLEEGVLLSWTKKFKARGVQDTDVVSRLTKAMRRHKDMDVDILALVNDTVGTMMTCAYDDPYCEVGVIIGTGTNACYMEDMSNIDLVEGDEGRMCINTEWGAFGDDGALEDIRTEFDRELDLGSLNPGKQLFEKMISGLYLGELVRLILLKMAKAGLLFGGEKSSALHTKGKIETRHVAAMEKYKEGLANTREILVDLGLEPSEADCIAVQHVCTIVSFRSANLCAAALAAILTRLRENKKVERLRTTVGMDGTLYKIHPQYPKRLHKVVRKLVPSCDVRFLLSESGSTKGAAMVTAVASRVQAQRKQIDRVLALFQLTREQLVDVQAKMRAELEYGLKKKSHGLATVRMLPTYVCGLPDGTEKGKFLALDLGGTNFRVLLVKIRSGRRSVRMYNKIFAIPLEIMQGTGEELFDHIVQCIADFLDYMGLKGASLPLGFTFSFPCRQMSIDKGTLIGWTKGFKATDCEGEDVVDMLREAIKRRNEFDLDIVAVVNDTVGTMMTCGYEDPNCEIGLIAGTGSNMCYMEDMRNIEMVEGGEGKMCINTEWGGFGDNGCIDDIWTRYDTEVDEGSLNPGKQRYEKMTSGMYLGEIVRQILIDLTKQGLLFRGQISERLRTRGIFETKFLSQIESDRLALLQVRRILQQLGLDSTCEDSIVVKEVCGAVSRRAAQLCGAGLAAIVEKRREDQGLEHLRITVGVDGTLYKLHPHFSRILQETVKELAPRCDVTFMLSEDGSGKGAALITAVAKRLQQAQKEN

Hexokinase-1 = biological target: T4, Hexokinase-1 (Homo sapiens, UniProt P19367); experiment: SAR analysis of small molecule inhibitors of hexokinase domain containing I (HKDC1) in the hexokinase 1 selectivity assay. [Related pubchem assays (depositor defined):AID493160, AID493190]; type: functional
T4 sequence (P19367 whole entry): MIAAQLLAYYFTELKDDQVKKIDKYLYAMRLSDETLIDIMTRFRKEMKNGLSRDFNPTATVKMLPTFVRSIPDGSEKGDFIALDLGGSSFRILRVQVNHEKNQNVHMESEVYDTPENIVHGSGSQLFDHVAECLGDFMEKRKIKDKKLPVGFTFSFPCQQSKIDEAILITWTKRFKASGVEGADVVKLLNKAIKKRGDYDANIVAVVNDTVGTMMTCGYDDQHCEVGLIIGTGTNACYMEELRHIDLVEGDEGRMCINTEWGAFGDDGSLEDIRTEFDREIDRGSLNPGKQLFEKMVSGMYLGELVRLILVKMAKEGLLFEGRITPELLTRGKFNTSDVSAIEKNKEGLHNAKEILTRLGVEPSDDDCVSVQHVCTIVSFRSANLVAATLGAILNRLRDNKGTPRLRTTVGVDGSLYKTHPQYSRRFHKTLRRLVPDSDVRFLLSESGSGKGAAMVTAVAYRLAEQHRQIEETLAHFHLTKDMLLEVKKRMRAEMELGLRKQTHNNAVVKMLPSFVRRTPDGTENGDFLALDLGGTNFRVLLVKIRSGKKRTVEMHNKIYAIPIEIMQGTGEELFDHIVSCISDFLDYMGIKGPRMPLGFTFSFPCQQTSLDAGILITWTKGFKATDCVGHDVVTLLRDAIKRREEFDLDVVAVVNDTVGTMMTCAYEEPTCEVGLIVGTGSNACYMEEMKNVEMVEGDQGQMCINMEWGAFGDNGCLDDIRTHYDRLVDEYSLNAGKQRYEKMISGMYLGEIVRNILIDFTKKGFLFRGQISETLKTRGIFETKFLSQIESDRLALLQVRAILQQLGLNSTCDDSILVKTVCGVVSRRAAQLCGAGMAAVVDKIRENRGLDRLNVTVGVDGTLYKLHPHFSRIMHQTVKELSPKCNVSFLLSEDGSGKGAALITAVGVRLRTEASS

[4] = biological target: T5, Apoptotic protease-activating factor 1 (Homo sapiens, UniProt O14727); experiment: SAR analysis of small molecule Activators of Apaf-1 in a Fluorescent assay.; type: functional; conditions: read-out: EC50_Mean;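 further: caspase-3 cleavage of fluorogenic Rh110 DEVD substrate downstream of apoptosome activation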
T5 sequence (O14727 whole entry): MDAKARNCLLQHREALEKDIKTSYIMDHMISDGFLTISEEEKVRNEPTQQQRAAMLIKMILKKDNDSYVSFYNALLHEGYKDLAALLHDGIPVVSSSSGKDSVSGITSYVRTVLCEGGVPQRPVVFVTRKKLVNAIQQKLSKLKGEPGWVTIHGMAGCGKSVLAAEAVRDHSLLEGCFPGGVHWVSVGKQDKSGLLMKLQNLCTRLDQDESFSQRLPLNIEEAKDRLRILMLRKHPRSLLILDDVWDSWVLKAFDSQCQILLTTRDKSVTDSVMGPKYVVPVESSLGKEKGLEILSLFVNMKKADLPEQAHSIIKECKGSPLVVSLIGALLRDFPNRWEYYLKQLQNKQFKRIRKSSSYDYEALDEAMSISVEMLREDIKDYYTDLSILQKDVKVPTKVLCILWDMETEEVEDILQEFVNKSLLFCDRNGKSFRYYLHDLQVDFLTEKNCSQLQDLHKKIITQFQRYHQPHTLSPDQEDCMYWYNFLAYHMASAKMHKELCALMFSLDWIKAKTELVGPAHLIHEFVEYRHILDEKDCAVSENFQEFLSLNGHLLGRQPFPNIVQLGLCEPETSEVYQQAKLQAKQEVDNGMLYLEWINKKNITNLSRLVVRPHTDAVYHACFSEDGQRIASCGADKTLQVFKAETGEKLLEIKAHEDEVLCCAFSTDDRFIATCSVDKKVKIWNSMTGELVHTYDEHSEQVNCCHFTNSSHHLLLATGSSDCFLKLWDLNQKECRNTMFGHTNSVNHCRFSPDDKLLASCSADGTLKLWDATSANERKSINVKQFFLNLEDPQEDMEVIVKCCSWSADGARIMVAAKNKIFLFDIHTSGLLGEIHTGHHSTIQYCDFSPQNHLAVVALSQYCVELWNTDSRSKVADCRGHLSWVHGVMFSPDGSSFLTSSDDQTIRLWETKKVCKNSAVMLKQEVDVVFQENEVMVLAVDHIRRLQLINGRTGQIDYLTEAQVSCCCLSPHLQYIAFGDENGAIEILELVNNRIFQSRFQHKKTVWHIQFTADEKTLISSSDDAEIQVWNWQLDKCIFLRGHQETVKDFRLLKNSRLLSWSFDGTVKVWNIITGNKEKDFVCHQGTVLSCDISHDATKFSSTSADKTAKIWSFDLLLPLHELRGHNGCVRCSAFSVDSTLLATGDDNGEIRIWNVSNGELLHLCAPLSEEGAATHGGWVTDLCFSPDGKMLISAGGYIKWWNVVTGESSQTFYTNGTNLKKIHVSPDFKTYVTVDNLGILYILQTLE

Interleukin-8 = biological target: T6, Interleukin-8 (Homo sapiens, UniProt P10145); experiment: Dose Response confirmation of uHTS small molecule hits for cystic fibrosis induced NFkb Inhibitors in a PAF-induced IL8 counterscreen.; type: functional; conditions: read-out: IC50_Mean
T6 sequence (P10145 whole entry): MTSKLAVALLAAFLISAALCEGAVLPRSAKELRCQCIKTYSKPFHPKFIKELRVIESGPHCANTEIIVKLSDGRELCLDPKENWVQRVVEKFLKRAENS

Protein Wnt-3a = Protein Wnt-3a (Mus musculus, UniProt P27467); experiment: antagonism of Wnt3a pathway luciferase reporter – Wnt-LIGHT cells, luminescence, selectivity assay for Gli-SUFU antagonist project, dose response (AID 651570); type: functional; conditions: read-out: IC50_Mean;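 further: Wnt-LIGHT reporter cells stimulated with conditioned medium from Wnt3a-producing cells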
Chain of Protein Wnt-3a (P27467 whole entry): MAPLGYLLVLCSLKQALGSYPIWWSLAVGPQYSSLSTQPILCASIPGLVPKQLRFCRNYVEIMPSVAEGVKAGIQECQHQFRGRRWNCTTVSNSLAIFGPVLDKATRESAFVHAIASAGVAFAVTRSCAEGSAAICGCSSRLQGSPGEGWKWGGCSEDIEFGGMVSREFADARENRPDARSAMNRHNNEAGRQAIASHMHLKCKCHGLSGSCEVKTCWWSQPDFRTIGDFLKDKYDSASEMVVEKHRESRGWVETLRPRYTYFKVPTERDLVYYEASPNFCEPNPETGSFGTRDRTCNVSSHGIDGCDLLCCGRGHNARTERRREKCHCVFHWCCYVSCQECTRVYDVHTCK

[5] = Trypanosoma cruzi growth suppression in host cells – NIH3T3 host cells, beta-gal luminescence, confirmation (AID 2044); type: functional, cell-based;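 further: intracellular parasites grown in NIH/3T3 mouse fibroblasts as host cells; luminescent beta-galactosidase reporter signal from transgenic T. cruzi replicating inside host cells; inhibitors lower the luminescence signal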
[6] = NIH3T3 cell viability loss – ATP luminescence, mouse fibroblasts, counter-screen, dose response (AID 2010); type: functional, cell-based;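 further: cells exposed to compound for about 90 hours before reading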
[7] = inhibition of ARNT PAS-B/TACC3 complex formation – biochemical, AlphaScreen, cherry-picked samples, confirmation (AID 651703); type: functional, Homo sapiens;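 further: His-tagged ARNT PAS-B domain paired with GST-TACC3 E629A dimer coactivator fragment; potency of inhibitors that break up the complex and lower AlphaScreen signal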

Chain of Potassium voltage-gated channel subfamily KQT member 2 (O88943 whole entry): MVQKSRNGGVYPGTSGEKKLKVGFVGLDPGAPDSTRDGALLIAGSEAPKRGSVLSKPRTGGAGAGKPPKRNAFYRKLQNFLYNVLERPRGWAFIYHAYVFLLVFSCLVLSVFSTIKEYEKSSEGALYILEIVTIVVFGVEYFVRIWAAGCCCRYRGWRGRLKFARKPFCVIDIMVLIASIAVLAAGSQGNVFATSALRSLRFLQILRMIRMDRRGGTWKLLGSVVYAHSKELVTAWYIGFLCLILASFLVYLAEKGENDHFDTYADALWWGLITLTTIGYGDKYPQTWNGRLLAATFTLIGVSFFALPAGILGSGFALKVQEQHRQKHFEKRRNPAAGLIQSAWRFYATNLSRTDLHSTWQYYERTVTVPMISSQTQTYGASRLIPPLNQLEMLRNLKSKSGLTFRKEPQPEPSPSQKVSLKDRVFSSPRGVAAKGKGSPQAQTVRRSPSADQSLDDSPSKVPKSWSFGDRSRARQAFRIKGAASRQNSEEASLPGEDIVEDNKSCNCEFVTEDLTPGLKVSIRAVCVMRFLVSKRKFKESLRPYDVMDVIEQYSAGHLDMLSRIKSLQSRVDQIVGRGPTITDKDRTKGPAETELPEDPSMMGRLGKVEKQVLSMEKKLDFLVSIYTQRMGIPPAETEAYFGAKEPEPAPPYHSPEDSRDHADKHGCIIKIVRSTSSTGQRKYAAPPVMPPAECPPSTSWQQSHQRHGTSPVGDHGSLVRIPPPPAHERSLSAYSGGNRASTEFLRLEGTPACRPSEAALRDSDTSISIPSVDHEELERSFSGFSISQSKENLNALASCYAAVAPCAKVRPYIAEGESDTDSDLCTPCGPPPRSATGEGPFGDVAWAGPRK

SMILES: COc1ccccc1N1CCN(C(=O)C(Cc2ccccc2)NC(=O)C2CCCCC2)CC1 (centres undefined)
IC50 [1]: 5.72 µM (active)

SMILES: COc1cccc(/C=C/c2nc3ccccc3c(=O)n2Cc2ccccc2)c1
IC50 (Hexokinase HKDC1): > 80 µM (inactive)
IC50 (Hexokinase-1): > 80 µM (inactive)

SMILES: CC(C)C[C@@H](CN1CCCC1CN1C(=S)NC[C@@H]1Cc1ccc(O)cc1)N1C[C@H](Cc2ccc(O)cc2)N(CCc2ccccc2)C1=S (some centres undefined)
IC50 (Interleukin-8): 9.82 µM (active)

SMILES: c1ccc(-c2c[n+](-c3ccccc3)c3n2CCS3)cc1
IC50 (Protein Wnt-3a): 3.05 µM (active)
EC50 [5]: 2.27 µM (active)
EC50 [6]: > 60 µM (inconclusive)

SMILES: COc1cccc(/C=N/NC(=O)CNC(=O)c2cccnc2)c1O
AC50 [7]: 81.1 µM (active)

Second part, the compound after the results:

IC50 [2]: 4.47 µM (active)
IC50 (Aminopeptidase N): 34.4 µM (active)
IC50 [3]: 8.3 µM (active)
SMILES: Cc1cccc(C)c1-n1cccc1/C=C1/C(=N)N2C(=NC1=O)SN=C2S(C)(=O)=O

EC50 [4]: > 100 µM (inactive)
SMILES: CCOc1ccccc1NC(=O)CCS(=O)(=O)c1cc2c(cc1Cl)NC(=O)CO2

IC50 (Hexokinase HKDC1): 65.7 µM (inactive)
IC50 (Hexokinase-1): 69 µM (inactive)
SMILES: COc1cc2c(cc1OC)-c1cc(N3CCc4ccccc4C3)nc(=O)n1CC2
